Reference: patent publication US20240041047A1, “ENHANCED ANTIMICROBIAL EFFICACY (SYNERGY) OF SILVER AND COPPER COMPOUNDS AND MEDICAL USE OF THEIR COMBINATIONS” (Nanordica Medical OÜ, priority 2021, published 2024)

Columns and labels:
[1] = system: Gram-negative and Gram-positive bacteria commonly colonizing wounds; assay: Antibacterial synergy K(Syn) of Ag and Cu compounds across bacterial strains (FIG. 3, FIG. 5); type: cell-based
Procedure: FIGS. 3A and 3B show the synergistic effect of CuO NPs and CuSO4 with Ag NPs (A) or AgNO3 (B) to a range of Gram-negative and Gram-positive bacteria commonly colonizing wounds. Bacterial suspension was incubated with Ag NPs, CuO NPs, respective ions or their combinations for 24 h, plated on agarized broth, and MBC was determined.
In order to quantify and compare the synergistic effect between different Ag and Cu compounds and among various bacterial strains, we introduced the term “Coefficient of antimicrobial synergy”, K(Syn), showing the antimicrobial efficiency of Ag compound and Cu compound combinations (mix) compared to the sum of the MBC values of individual compounds and calculated as follows: […]
In order to quantify and compare the synergistic effect between different Ag NPs and Copper compounds among various bacterial strains, we introduced the term “Coefficient of antibacterial synergy”, K(Syn), showing the antimicrobial efficiency of Ag- and copper compound combinations (mix) compared to the sum of the MBC values of individual Ag- and Cu compounds and calculated as follows: […]
Bacterial suspensions were incubated with Ag NPs, CuO NPs, respective ions or their combinations for 24 h, plated on agarized broth, and MBC was determined. […]

[2] = system: E. faecalis ATCC 29212 (G+); assay: MBC of Ag NPs, Cu compounds and combinations, 24 h incubation, plated on agarized broth; type: cell-based, Enterococcus faecalis
[3] = system: E. coli K-12 (G−); assay: as above; type: cell-based, Escherichia coli
[4] = system: S. dysgalacticae DSM 23147 (G+); assay: as above; type: cell-based
[5] = system: P. aeruginosa PAO1 (G−); assay: as above; type: cell-based, Pseudomonas aeruginosa
[6] = system: E. coli ESBL (G−); assay: as above; type: cell-based, Escherichia coli
[7] = system: S. aureus ATCC 25923 (G+); assay: as above; type: cell-based, Staphylococcus aureus

Row | SMILES | synergistic effect with Cu compounds compared with Ag NPs ([1]; ionic silver used instead of Ag NPs (FIG. 3B)) | synergy with Ag NPs, K(Syn), ranking among Cu compounds ([1]; all tested bacterial strains (FIG. 3A)) | K (Syn) ([2]; E. faecalis ATCC 29212, Cu compound + Ag NPs) | MBC (CuX) in combination ([2]; E. faecalis ATCC 29212, Cu compound in combination with Ag NPs) [µg/mL] | MBC alone ([2]; E. faecalis ATCC 29212, compound alone) [µg/mL] | K (Syn) ([3]; E. coli K-12, Cu compound + Ag NPs) | MBC (CuX) in combination ([3]; E. coli K-12, Cu compound in combination with Ag NPs) [µg/mL] | MBC alone ([3]; E. coli K-12, compound alone) [µg/mL] | K (Syn) ([4]; S. dysgalacticae DSM 23147, Cu compound + Ag NPs) | MBC (CuX) in combination ([4]; S. dysgalacticae DSM 23147, Cu compound in combination with Ag NPs) [µg/mL] | MBC alone ([4]; S. dysgalacticae DSM 23147, compound alone) [µg/mL] | K (Syn) ([5]; P. aeruginosa PAO1, Cu compound + Ag NPs) | MBC (CuX) in combination ([5]; P. aeruginosa PAO1, Cu compound in combination with Ag NPs) [µg/mL] | MBC alone ([5]; P. aeruginosa PAO1, compound alone) [µg/mL] | K (Syn) ([6]; Cu compound + Ag NPs) | MBC (CuX) in combination ([6]; Cu compound in combination with Ag NPs) [µg/mL] | MBC alone ([6]; compound alone) [µg/mL] | K (Syn) ([7]; S. aureus ATCC 25923, Cu compound + Ag NPs) | MBC (CuX) in combination ([7]; S. aureus ATCC 25923, Cu compound in combination with Ag NPs) [µg/mL] | MBC alone ([7]; S. aureus ATCC 25923, compound alone) [µg/mL]
1 | O=[N+]([O-])[O-].[Ag+] [AgNO3, reference compound] | considerably lower | – | – | – | – | – | – | – | – | – | – | – | – | – | – | – | – | – | – | –
2 | O=S(=O)([O-])[O-].[Cu+2] [CuSO4] | – | highest | 4.254 ± 0.977 | 20.83 ± 7.22 | 200 ± 0 | 5.055 ± 0.383 | 22.5 ± 16.3 | 217.6 ± 72.8 | 3.909 ± 0.832 | 12.5 ± 0 | 133.3 ± 57.7 | 2.783 ± 0.687 | 20 ± 6.85 | 720 ± 178.9 | 4.727 ± 0.63 | 25 ± 0 | 200 ± 0 | 3.659 ± 1.083 | 16.25 ± 8.39 | 90 ± 22.36
